Reference: patent US20240277700A1, “COMPOSITIONS AND METHODS FOR TREATING AND PREVENTING INTERSTITIAL CYSTITIS” (Hista RX LLC, priority 2021, published 2024)

How the values were obtained:
[1] = test system: patient with interstitial cystitis; assay: Example 2: case report, patient with chronic interstitial cystitis and IBS-diarrhea; details: person; before the combination
patients with IC = details: cited from earlier work
[2] = test system: patient with painful bladder syndrome; assay: Example 3: case report, patient with chronic painful bladder syndrome; type: in vivo, human; details: person; prior treatment without the combination

## COc1ccc2nc([S@@+]([O-])Cc3ncc(C)c(OC)c3C)[nH]c2c1 [Esomeprazole]
[1]
  resolution of urologic and/or gastrointestinal conditions by previous medications: without resolution

## OCCOCCN1CCN(C(c2ccccc2)c2ccc(Cl)cc2)CC1 (centres unmarked) [Hydroxyzine]
Patients with IC; monotherapy
  benefit in the treatment of IC: some limited benefit
[2]
  symptomatic relief by prior treatment: insufficient

## CN/C(=N/CCSCc1nc[nH]c1C)NC#N [cimetidine]
Patients with IC; monotherapy 300 mg bid (600 mg daily) for one month, case series of 9 patients
  symptomatic relief of IC: effective

## Sucralfate
[1]
  resolution of urologic and/or gastrointestinal conditions by previous medications: without resolution
